{
  "source": "patent US7427620B2",
  "about": "“Azole derivative useful as antifungal agents with reduced interaction with metabolic cytochromes” (Italfarmaco SPA, priority 2003, dated 2008)",
  "key": {"Candida albicans [1]": {"tested_on": "Candida albicans", "assay": "Mouse model of systemic candidiasis, survival", "assay_type": "in vivo, CD1 mice", "conditions": "for Average survival (days) ± S.D.: observed until day 30", "procedure": "Experiment C: Study of the Efficacy of Compounds of the Formula (I) in a Mouse Model of Systemic Candidiasis.\nThe C. albicans isolate was cultured for 24 h in yeast dextrose broth. The blastospores were recovered by centrifugation, repeatedly washed in sterile saline solution and the inoculum adjusted to the desired concentration. The inoculum was verified by a subsequent count of CFU/ml on Sabouraud plates.\nThe mice were then inoculated intravenously (0.2 ml/mouse).\n24 hours after inoculation with C. albicans, the animals were randomised into the following treatment groups (10 mice/group): • 1. […] Compound under investigation: 50 mg/kg/day (two 25 mg/kg treatments twice daily at 12 hour intervals) • 3. Compound under investigation; 10 mg/kg/day (two 5 mg/kg treatments twice daily at 12 hour intervals) • 4. Control (placebo)\nThe compounds were administered orally (suspension in PEG 200, 0.2 ml/mouse) for 10 consecutive days and the animals were observed until day 30. The survival curves between the various treatment groups and between these groups and the control group were evaluated using the Kaplan-Meier method."}, "Candida parapsilosis": {"tested_on": "Candida parapsilosis", "assay": "Antifungal activity, liquid phase microdilution (NCCLS M27/M38-P)", "assay_type": "cell-based", "conditions": "Candida parapsilosis strain ATCC22019", "procedure": "(§1) Experiment A: Antifungal Activity of Compounds of the Formula (I)\n(§2) The antifungal activity of the compounds of the formula (I) was determined using various strains of yeast and filamentous fungi. […] Table no."}, "Candida glabrata": {"tested_on": "Candida glabrata", "assay": "Antifungal activity, liquid phase microdilution (NCCLS M27/M38-P)", "assay_type": "cell-based", "conditions": "Candida glabrata strain 02-0902", "procedure": "as §1, §2"}, "Candida albicans [2]": {"tested_on": "Candida albicans", "assay": "Antifungal activity, liquid phase microdilution (NCCLS M27/M38-P)", "assay_type": "cell-based", "procedure": "as §1, §2"}, "CYP2D6": {"target": "T1, CYP2D6 (Homo sapiens, UniProt P10635)", "T1 construct": "purchased Gentest", "T1 sequence (P10635 whole entry, canonical isoform)": "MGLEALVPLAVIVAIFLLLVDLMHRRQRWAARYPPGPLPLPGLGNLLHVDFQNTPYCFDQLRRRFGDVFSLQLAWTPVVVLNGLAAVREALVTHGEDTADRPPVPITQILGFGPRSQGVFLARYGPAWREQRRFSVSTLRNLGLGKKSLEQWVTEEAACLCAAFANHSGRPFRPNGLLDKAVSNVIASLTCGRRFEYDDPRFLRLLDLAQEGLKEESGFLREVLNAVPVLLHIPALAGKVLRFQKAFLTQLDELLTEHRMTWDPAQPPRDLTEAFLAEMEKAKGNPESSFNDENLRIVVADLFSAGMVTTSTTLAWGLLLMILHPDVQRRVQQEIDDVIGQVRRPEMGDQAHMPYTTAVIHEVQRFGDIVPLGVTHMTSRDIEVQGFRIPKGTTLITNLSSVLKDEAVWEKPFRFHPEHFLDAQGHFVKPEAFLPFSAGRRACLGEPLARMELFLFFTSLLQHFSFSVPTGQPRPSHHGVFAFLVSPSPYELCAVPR", "assay": "Inhibition of human cytochromes, fluorescent substrates", "assay_type": "in vitro ADME", "conditions": "isoenzyme (Gentest), 37° C.", "procedure": "(§3) Experiment B: Inhibition of Human Cytochromes by Compounds of the Formula (I)\n(§4) Inhibition of the enzymatic activity of the most significant isoforms of human cytochromes by the compounds of the formula (I) was measured by using specific substrates which become fluorescent as a result of the metabolic action of a particular cytochrome isoform. The individual isoenzymes (Gentest) and the respective substrates were incubated in 96 well plates in buffer containing […] at 37° C. in the presence or absence of the compound under investigation. […] The degree of inhibition of each individual isoenzyme by known inhibitors was also assessed as a positive control."}, "CYP2C9": {"target": "T2, CYP2C9 (Homo sapiens, UniProt P11712)", "T2 construct": "purchased Gentest", "T2 sequence (P11712 whole entry)": "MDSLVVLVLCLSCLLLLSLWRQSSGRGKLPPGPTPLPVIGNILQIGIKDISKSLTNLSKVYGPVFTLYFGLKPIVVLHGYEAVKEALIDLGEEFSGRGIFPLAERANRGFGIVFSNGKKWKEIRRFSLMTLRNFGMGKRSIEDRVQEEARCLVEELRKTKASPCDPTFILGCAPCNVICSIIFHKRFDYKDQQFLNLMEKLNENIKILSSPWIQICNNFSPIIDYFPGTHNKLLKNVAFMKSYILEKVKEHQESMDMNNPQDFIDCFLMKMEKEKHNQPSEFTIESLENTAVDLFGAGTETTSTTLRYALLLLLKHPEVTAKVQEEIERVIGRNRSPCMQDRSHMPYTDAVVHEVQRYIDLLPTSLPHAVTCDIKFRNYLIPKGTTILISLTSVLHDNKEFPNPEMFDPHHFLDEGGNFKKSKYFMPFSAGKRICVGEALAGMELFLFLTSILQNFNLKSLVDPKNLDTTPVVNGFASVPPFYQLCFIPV", "assay": "Inhibition of human cytochromes, fluorescent substrates", "assay_type": "in vitro ADME", "conditions": "isoenzyme (Gentest), 37° C.", "procedure": "as §3, §4"}, "CYP2C19": {"target": "T3, CYP2C19 (Homo sapiens, UniProt P33261)", "T3 construct": "purchased Gentest", "T3 sequence (P33261 whole entry)": "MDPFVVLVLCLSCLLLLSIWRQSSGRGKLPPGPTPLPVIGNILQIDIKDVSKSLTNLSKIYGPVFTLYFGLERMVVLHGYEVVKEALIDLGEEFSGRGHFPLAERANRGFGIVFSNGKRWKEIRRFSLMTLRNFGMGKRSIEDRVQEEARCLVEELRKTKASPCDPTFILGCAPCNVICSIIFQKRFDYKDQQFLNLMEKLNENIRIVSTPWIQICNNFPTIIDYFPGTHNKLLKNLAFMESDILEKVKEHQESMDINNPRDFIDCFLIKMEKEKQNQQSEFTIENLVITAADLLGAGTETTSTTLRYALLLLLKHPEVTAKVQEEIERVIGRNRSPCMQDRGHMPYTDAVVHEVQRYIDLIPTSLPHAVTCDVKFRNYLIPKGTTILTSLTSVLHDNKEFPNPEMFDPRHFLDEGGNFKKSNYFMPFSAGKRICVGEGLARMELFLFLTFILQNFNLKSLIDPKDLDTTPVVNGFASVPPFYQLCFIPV", "assay": "Inhibition of human cytochromes, fluorescent substrates", "assay_type": "in vitro ADME", "conditions": "isoenzyme (Gentest), 37° C.", "procedure": "as §3, §4"}, "CYP1A2": {"target": "T4, CYP1A2 (Homo sapiens, UniProt P05177)", "T4 construct": "purchased Gentest", "T4 sequence (P05177 1-516)": "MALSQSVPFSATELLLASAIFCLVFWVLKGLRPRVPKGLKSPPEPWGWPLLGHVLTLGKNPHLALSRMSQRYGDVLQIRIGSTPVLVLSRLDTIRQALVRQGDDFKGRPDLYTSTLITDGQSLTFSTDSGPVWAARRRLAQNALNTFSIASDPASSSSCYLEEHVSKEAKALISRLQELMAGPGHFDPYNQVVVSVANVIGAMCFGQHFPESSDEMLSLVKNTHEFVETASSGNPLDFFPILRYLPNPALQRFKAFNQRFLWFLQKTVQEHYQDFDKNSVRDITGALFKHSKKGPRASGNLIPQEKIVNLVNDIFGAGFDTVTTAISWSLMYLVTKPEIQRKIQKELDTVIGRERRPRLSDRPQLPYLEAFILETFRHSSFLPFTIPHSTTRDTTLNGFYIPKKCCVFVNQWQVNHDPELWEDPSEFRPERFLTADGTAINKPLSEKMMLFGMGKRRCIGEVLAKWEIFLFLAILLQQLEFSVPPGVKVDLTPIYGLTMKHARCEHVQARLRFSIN", "assay": "Inhibition of human cytochromes, fluorescent substrates", "assay_type": "in vitro ADME", "conditions": "isoenzyme (Gentest), 37° C.", "procedure": "as §3, §4"}, "CYP3A4": {"target": "T5, CYP3A4 (Homo sapiens, UniProt P08684)", "T5 construct": "purchased Gentest", "T5 sequence (P08684 whole entry)": "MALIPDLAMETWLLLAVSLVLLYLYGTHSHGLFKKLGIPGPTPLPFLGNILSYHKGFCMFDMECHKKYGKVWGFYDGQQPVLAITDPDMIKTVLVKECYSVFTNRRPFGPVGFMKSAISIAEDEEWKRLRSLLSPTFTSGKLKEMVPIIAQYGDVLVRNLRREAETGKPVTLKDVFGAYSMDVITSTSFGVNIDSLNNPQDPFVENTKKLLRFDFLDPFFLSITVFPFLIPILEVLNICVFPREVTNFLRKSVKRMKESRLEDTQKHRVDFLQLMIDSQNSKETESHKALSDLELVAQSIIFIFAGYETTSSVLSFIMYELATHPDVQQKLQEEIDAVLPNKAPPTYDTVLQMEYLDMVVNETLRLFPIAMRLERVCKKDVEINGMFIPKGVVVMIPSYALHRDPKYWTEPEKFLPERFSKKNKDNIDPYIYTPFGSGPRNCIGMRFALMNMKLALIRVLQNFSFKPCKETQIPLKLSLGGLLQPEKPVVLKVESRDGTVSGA", "assay": "Inhibition of human cytochromes, fluorescent substrates", "assay_type": "in vitro ADME", "conditions": "isoenzyme (Gentest), 37° C.", "procedure": "as §3\nThe individual isoenzymes (Gentest) and the respective substrates were incubated in 96 well plates in buffer containing […] at 37° C. in the presence or absence of the compound under investigation. […] The degree of inhibition of each individual isoenzyme by known inhibitors was also assessed as a positive control."}, "Aspergillus fumigatus": {"tested_on": "Aspergillus fumigatus", "assay": "Antifungal activity, liquid phase microdilution (NCCLS M27/M38-P)", "assay_type": "cell-based", "set-up": "IC50 (minimum concentration to bring about 50% inhibition): unit not given here", "procedure": "as §1, §2"}, "[3]": {"conditions": "10 mg/kg/day orally (5 mg/kg twice daily) for 10 days"}, "[4]": {"conditions": "50 mg/kg/day orally (25 mg/kg twice daily) for 10 days"}},
  "data": [
    {"substance": "cis(±)-4-{4-[4-{4-[2-(pyridin-2-yl)-2-(1H-1,2,4-triazol-1-ylmethyl)-1,3-dioxolan-4-yl-methoxy]phenyl}-1-piperazinyl]-phenyl}-2-(1-(R,S)methylpropyl)-2,4-dihydro-3H-1,2,4-triazol-3-one [Example 9]", "values": [
      {"measurement": "Surviving mice 21 days after infection", "setting": "Candida albicans [1]; [3]", "result": 0, "unit": "%"},
      {"measurement": "Average survival (days) ± S.D.", "setting": "Candida albicans [1]; [3]", "result": "6.6 ± 0.8", "unit": "days"},
      {"measurement": "Surviving mice 21 days after infection", "setting": "Candida albicans [1]; [4]", "result": 10, "unit": "%"},
      {"measurement": "Average survival (days) ± S.D.", "setting": "Candida albicans [1]; [4]", "result": "9.1 ± 1.5", "unit": "days"},
      {"measurement": "IC50 (minimum concentration to bring about 50% inhibition)", "setting": "Candida parapsilosis", "result": "≦0.03 mg/ml"},
      {"measurement": "IC50 (minimum concentration to bring about 50% inhibition)", "setting": "Candida glabrata", "result": 1, "unit": "mg/mL"},
      {"measurement": "IC50 (minimum concentration to bring about 50% inhibition)", "setting": "Candida albicans [2]; Candida albicans strain 21", "result": 39, "unit": "mg/mL"},
      {"measurement": "IC50 (minimum concentration to bring about 50% inhibition)", "setting": "Candida albicans [2]; Candida albicans strain gen-45", "result": "≦0.03 mg/ml"},
      {"measurement": "IC50", "setting": "CYP2D6", "result": "> 100", "unit": "µM"},
      {"measurement": "IC50", "setting": "CYP2C9", "result": "54.1 ± 5.2", "unit": "µM"},
      {"measurement": "IC50", "setting": "CYP2C19", "result": "40.7 ± 12.7", "unit": "µM"},
      {"measurement": "IC50", "setting": "CYP1A2", "result": "> 100", "unit": "µM"},
      {"measurement": "IC50", "setting": "CYP3A4", "result": "0.22 ± 0.05", "unit": "µM"},
      {"measurement": "IC50 (minimum concentration to bring about 50% inhibition)", "setting": "Aspergillus fumigatus; Aspergillus fumigatus strain 34", "result": 0.25},
      {"measurement": "IC50 (minimum concentration to bring about 50% inhibition)", "setting": "Aspergillus fumigatus; Aspergillus fumigatus strain 99-2135", "result": 0.25}
    ]}
  ]
}
